Earlier results in US8741563B2, “Metronidazole resistance in trichomonas vaginalis and single nucleotide polymorphisms” (priority 2011, dated 2014).

Test system: Trichomonas vaginalis
Conditions: reported effectiveness of metronidazole treatment

Cc1ncc([N+](=O)[O-])n1CCO [Metronidazole]
treatment effective: 85-95%
